The values below come from patent US8889731B2, “Compounds, compositions and methods for repelling blood-feeding arthropods and deterring their landing and feeding” (Contech Enterprises Inc., priority 2007, dated 2014).

Molecules are shown by their SMILES.

Type in all cases: in vivo
For one test, the system named is Aedes aegypti. Kind of test: Arm-in-cage repellent/deterrent bioassay on exposed human forearm (modified WHO protocol), Aedes aegypti. The protocol: (§1) Candidate repellents and deterrents were bioassayed according to a modified protocol from the World Health Organization (1996). At least 1 hour prior to each bioassay, 75 host-seeking non blood-fed, nulliparous, 5- to 8-day-old female Aedes aegypti, Anopheles gambiae or Culex quinquefasciatus were placed into a wood-framed cage (26.5 cm on each side and 42.5 cm high) with a wooden floor, screened mesh sides and top, and a clear acrylic front fitted with a cotton stockinette sleeve (10 cm diameter). The test subject's arm was covered with an elbow-length polyethylene glove with an excised patch (16.6 cm long, 6 cm wide) to expose the ventral forearm of the test subject. Candidate deterrents were formulated in mineral (paraffin) oil and applied to the exposed forearm 5 min prior to inserting the arm into the cage. The inserted arm remained in the cage for 3 min every 30 min. Prior to each 3-min bioassay period, the hand of the untreated arm was inserted into the cage to ascertain that it received 10 bites within 30 sec as an indication of “biting pressure”.
(§2) The bioassay was terminated when the treated arm received ≧2 bites in one 3-min bioassay period or one bite in each of two consecutive bioassay periods. The time elapsed from experiment initiation to first bite was recorded as deterrent failure or complete protection time.
(§3) N,N-diethyl-m-toluamide formulated in ethanol at a corresponding dose served as a positive control, and mineral oil by itself served as a negative control. On each day, only one candidate compound was tested, ensuring that any residual material in the chamber had disappeared before the next bioassay.
To determine the repellence and deterrence of 8-allylsulfanyloctan-1-ol against Aedes aegypti, a 5%, 10% or 25% formulation of 8-allylsulfanyloctan-1-ol in mineral oil was applied in Experiments 1-3 at a dose of 1.5 mg (total composition) per cm^2 to the skin of the test person, and was bioassayed according to the protocol described under EXAMPLE 2. In Experiment 4, mineral oil by itself served as a negative control and was bioassayed at the same dose (1.5 mg per cm^2) as in Experiments 1-3. Each of Experiments 1-4 was replicated four times.
To compare the repellence and deterrence against Aedes aegypti caused by 8-allylsulfanyloctan-1-ol as a single active ingredient and by 8-allylsulfanyloctan-1-ol in combination with vanillin as a second active ingredient, we tested a 6.7% emulsion of vanillin (Experiment 14), a 6.7% emulsion of 8-allylsulfanyloctan-1-ol (Experiment 15), and a 13.4% emulsion of 8-allylsulfanyloctan-1-ol plus vanillin (1:1 ratio) (Experiment 16). 8-Allylsulfanyloctan-1-ol and vanillin were formulated in Emulsion No. 1 (see EXAMPLE 9). In each of Experiments […], test stimuli were applied at a dose of 1.5 mg per cm^2 to the skin of the test person, and were bioassayed according to the protocol described under EXAMPLE 2. In Experiment 17, Emulsion No. 1 served as a positive control and was tested at the same dose (1.5 mg per cm^2) as in Experiments 14-16.
To be able to compare the repellence and deterrence caused by N,N-diethyl-m-toluamide and by 8-allylsulfanyloctan-1-ol plus vanillin in Emulsion No. 1 (EXAMPLE 9), Experiment 26 tested a 6.7% formulation of N,N-diethyl-m-toluamide in ethanol (the best formulant for DEET) for protection from bites by Aedes egypti. In each replicate, a dose of 1.5 mg per […] was applied to the skin of the test person and bioassayed according to the protocol described under EXAMPLE 2.
To be able to further compare the deterrence caused by N,N-diethyl-m-toluamide with that caused by 8-allylsulfanyloctan-1-ol plus vanillin, Experiment 27 tested a 10.4% formulation of N,N-diethyl-m-toluamide in ethanol, and Experiment 28 tested 8-allylsulfanyloctan-1-ol (10.4%) plus vanillin (7.9%) in Emulsion No. 2 (EXAMPLE 10). […]

A further test has as its system mosquitoes. Kind of test: General bioassay procedure with garlic oil, its components and fractions (mosquito species not given). The procedure: as §1, §2, §3
Garlic oil (Allium sativum—Mexico; Clearwater Soap Works, Box 1775 RR1, Clearwater, BC V0E 1N0, Canada) was formulated in mineral oil and tested using the general bioassay procedure described in EXAMPLE 2 at a dose of 0.1 mg per cm^2 of arm surface. It expressed repellence and deterrence for ˜30 min.
Some of the 10 components in FIG. 1 were bioassayed singly (see general bioassay procedure) and in various combinations, all of which were as deterrent to mosquitoes as garlic oil.
To determine the most deterrent component(s) in garlic oil, it was fractionated by HPLC into four fractions, each containing one or more of the EAD-active components (compounds 1-10 in FIG. 1 and 11-14 in TABLE 2). Each fraction was then bioassayed and shown to be similarly effective in repelling and deterring mosquitoes.
Components with high molecular weight (>250 daltons) are advantageous in that they: 1) dissipate slowly from treated surfaces; 2) provide long-lasting protection against mosquitoes and 3) convey little, if any, offensive smell. The relative abundance of such components was enhanced by treating garlic oil under vacuum, thus stripping away lower-boiling components. In GC-EAD analyses of the high-boiling residue, four components elicited responses from mosquito antennae.

In another test the test system is Culex quinquefasciatus. Kind of test: Arm-in-cage repellent/deterrent bioassay on exposed human forearm (modified WHO protocol), Culex quinquefasciatus. The protocol: as §1, §2, §3
To determine the repellence and deterrence of 8-allylsulfanyloctan-1-ol against Culex quinquefasciatus, a 2% and 5% or a 10% formulation of 8-allylsulfanyloctan-1-ol in mineral oil was applied in Experiments 9-11 at a dose of 1.5 mg per cm^2 to the skin of the test person, and was bioassayed according to the protocol described under EXAMPLE 2. In Experiment 12, mineral oil by itself served as a negative control and was tested at the same dose (1.5 mg per cm^2) as in Experiments […]. Each of Experiments 9-11 was replicated 4 times.
To compare the repellence and deterrence against Culex quinquefasciatus caused by 8-allylsulfanyloctan-1-ol as a single active ingredient and by 8-allylsulfanyloctan-1-ol in combination with vanillin as a second active ingredient, we tested a 6.7% emulsion of vanillin (Experiment 22), a 6.7% emulsion of 8-allylsulfanyloctan-1-ol (Experiment 23) and a 13.4% emulsion of 8-allylsulfanyloctan-1-ol plus vanillin (1:1 ratio) (Experiment 24). 8-Allylsulfanyloctan-1-ol and vanillin were formulated in Emulsion No. 1 (see EXAMPLE 9). In each of Experiments […], test stimuli were applied at a dose of 1.5 mg per cm^2 to the skin of the test person, and were bioassayed according to the protocol described under EXAMPLE 2. In Experiment 25, Emulsion No. 1 served as a positive control and was tested at the same dose (1.5 mg per cm^2) as in Experiments 22-24. Each of Experiments 22-25 was replicated three times.

On to `C=CCSCCCCCCCCO` [Compound 24, 8-allylsulfanyloctan-1-ol], for which the “protection from bites, average duration” value in the test with Aedes aegypti (5% formulation in mineral oil, 1.5 mg per cm^2, Experiment 1) is given as 52 min; in the test on Aedes aegypti (6.7% single active in Emulsion No. 1, 1.5 mg per cm^2, Experiments 14, 15), 77 min; in the test on Aedes aegypti (10% formulation in mineral oil, 1.5 mg per cm^2, Experiment 2) it was 157 min; in the test with Aedes aegypti (25% formulation in mineral oil, 1.5 mg per cm^2, Experiment 3) it was 305 min; with Culex quinquefasciatus (2% formulation in mineral oil, 1.5 mg per cm^2, Experiment 9) it was 198 min; in the test with Culex quinquefasciatus (5% formulation in mineral oil, 1.5 mg per cm^2, Experiment 10), 319 min. In addition, the “protection from bites, average duration” value with Culex quinquefasciatus (6.7% single active in Emulsion No. 1 (FIG. 9 legend: 2.0%), 1.5 mg per cm^2, Experiments 22, 23) is 242 min; in the test on Culex quinquefasciatus (10% formulation in mineral oil, 1.5 mg per cm^2, Experiment 11), 495 min. The “repellent and deterrent effect in bioassays (in words)” value in the test with mosquitoes is recorded as “very potent, even at a low dose”. The “protection status when experiment was terminated after eight hours” value with Culex quinquefasciatus (10% formulation in mineral oil, Experiment 11, each of the three replicates) is recorded as “complete protection against bites”.
